This is an account of results in patent US11325936B2, “Sialidase inhibitors and preparation thereof” (The Regents of the University of California, priority 2017, dated 2022).

One experiment deals with VcSialidase (Vibrio cholerae serotype O1, UniProt P0C6E9). Kind of experiment: Sialidase inhibition assay (Example 7). It counts as biochemical. The following applies: for inhibition at 1000 µM: pH 5.5, read-out: Percentage inhibition (%) against VcSialidase.
For experiment [1], the target named is T1, PmST1 (Pasteurella multocida, UniProt Q15KI8). In words: Sialidase inhibition assay (Example 4). The following applies: 0.1 mM of each inhibitor; substrate Neu5Acα2-3GalβpNP 0.3 mM; pH 5.5; read-out: Percentage inhibition (%) against PmST1. It counts as biochemical. As to the method:
The assay conditions varied for different sialidases as described below: SpNanA (0.0015 μg), NaOAc buffer (100 mM, pH 6.0); SpNanB (0.003 μg), NaOAc buffer (100 mM, pH 6.0); SpNanC (0.02 μg), MES buffer (100 mM, pH 6.5); AuSialidase (1.0 mU), NaOAc buffer (100 mM, pH 5.5); CpNanI (2.0 mU), MES buffer (100 mM, pH 5.0); CpNanH (0.5 mU), MES buffer (100 mM, pH 5.0); VcSialidase (1.5 mU), NaCl (150 mM), CaCl2) (10 mM), NaOAc buffer (100 mM, pH 5.5); PmST1 (34.4 μg), NaOAc buffer (100 mM, pH 5.5); BiNanH2, NaOAc buffer (100 mM, pH 5.0); hNEU2 (22.0 μg), MES buffer (100 mM, pH 5.0). The reactions were incubated for 30 min at 37° C., and were stopped by adding CAPS buffer (N-cyclohexyl-3-aminopropane sulfonic acid, 40 μL, 0.5 M, pH 10.5). The amount of the para-nitrophenolate formed was determined by measuring the A405 nm Of the reaction mixtures using a microplate reader.
The percentage inhibitions were determined using a concentration of 0.1 mM of each inhibitor, with reactions without inhibitors as controls. […] The values of IC50 were calculated by the software Grafit 5.0.

The target in experiment [2] is T2, SpNanB (Streptococcus pneumoniae serotype 4, UniProt Q54727, E68D/K536E/K577E/N393D/S59P). Kind of experiment: Sialidase inhibition assay (Example 4). Particulars: pH 6, read-out: Percentage inhibition (%) against SpNanB. Type of experiment: biochemical.
In experiment [3] the target is T3, SpNanC (Streptococcus pneumoniae, UniProt A0A0H2UQE4). In words: Sialidase inhibition assay (Example 7). The following applies: for inhibition at 1000 µM: pH 6.5, read-out: Percentage inhibition (%) against SpNanC.
The target of experiment [4] is T1, PmST1. In words: Sialidase inhibition assay (Example 7). Type of experiment: biochemical. The following applies: 1 mM of each inhibitor; substrate Neu5Acα2-3GalβpNP 0.3 mM; CMP 0.4 mM; pH 5.5; read-out: Percentage inhibition (%) against PmST1.
Another experiment deals with SpNanA (Streptococcus pneumoniae, UniProt P62575). Kind of experiment: Sialidase inhibition assay (Example 7). It counts as biochemical. The following applies: for inhibition at 1000 µM: pH 6, read-out: Percentage inhibition (%) against SpNanA; for Percentage inhibition (%) against SpNanA: 1 mM of each inhibitor, substrate Neu5Acα2-3GalβpNP 0.3 mM, pH 6.0.
Another experiment concerns CpNanI. Type of experiment: biochemical, Clostridium perfringens. The following applies: 1 mM of each inhibitor; substrate Neu5Acα2-3GalβpNP 0.3 mM; pH 5.0.
For experiment [5], the target named is T4, BiNanH2 (Bifidobacterium longum subsp. infantis, UniProt A0ACD7UU12). In words: Sialidase inhibition assay (Example 7). Particulars: pH 5, read-out: Percentage inhibition (%) against BiNanH2. Type of experiment: biochemical.
The next experiment addresses T5, AuSialidase (Paenarthrobacter ureafaciens, UniProt Q5W7Q2).
T5 sequence (Q5W7Q2 39-990): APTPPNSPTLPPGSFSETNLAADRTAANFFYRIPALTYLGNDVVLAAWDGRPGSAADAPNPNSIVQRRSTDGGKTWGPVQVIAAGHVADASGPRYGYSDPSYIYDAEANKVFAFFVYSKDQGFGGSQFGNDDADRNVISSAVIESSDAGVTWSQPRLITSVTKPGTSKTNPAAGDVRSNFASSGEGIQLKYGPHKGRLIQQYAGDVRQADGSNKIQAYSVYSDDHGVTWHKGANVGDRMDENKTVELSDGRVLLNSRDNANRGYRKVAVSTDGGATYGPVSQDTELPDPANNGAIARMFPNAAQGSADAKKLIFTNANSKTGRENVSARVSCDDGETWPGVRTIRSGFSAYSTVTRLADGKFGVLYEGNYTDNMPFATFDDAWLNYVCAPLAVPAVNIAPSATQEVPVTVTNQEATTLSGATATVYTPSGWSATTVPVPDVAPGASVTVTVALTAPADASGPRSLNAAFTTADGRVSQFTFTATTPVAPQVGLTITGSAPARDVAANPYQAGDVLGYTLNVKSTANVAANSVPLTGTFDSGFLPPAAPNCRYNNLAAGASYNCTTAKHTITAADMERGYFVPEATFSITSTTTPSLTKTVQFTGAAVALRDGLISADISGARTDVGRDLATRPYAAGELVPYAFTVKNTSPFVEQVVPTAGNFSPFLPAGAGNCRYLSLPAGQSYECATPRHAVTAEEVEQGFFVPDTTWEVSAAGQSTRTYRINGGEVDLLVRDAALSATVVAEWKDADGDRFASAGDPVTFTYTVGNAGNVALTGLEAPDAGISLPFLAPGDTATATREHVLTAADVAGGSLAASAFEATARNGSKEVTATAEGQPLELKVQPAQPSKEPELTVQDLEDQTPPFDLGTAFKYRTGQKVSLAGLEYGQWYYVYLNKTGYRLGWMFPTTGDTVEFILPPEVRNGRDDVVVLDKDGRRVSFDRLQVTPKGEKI
In words: Sialidase inhibition assay (Example 7). It counts as biochemical, Arthrobacter ureafaciens. Particulars: for inhibition at 1000 µM: read-out: Percentage inhibition (%) against AuSialidase.

Experiment [6] concerns the target T4, BiNanH2. Kind of experiment: Sialidase inhibition assay (Example 4). Type of experiment: biochemical. Particulars: pH 5, read-out: Percentage inhibition (%) against BiNanH2, 0.1 mM of each inhibitor, substrate Neu5Acα2-3GalβpNP 0.3 mM.
Experiment [7] addresses T3, SpNanC. In words: Sialidase inhibition assay (Example 4). It counts as biochemical. The following applies: pH 6.5, read-out: Percentage inhibition (%) against SpNanC.
Experiment [8] concerns the target T2, SpNanB. Kind of experiment: Sialidase inhibition assay (Example 7). Type of experiment: biochemical. The following applies: for inhibition at 1000 µM: pH 6, read-out: Percentage inhibition (%) against SpNanB; for Percentage inhibition (%) against SpNanB: 1 mM of each inhibitor, substrate Neu5Acα2-3GalβpNP 0.3 mM, pH 6.0.
The target of a further experiment is CpNanH (Clostridium perfringens, UniProt P10481). In words: biochemical. The following applies: pH 5.0; read-out: Percentage inhibition (%) against CpNanH.
Experiment [9] concerns SpNanC. In words: Substrate specificity assay of SpNanC. The following applies: sialoside substrate 0.3 mM; SpNanC (2 μg); Tris-HCl pH 7.0; 30 min, 37° C.
In experiment [10] the target is T2, SpNanB. Kind of experiment: Substrate specificity of SpNanB. The following applies: pNP-tagged α2-3-linked sialosides.
For experiment [11], the target named is T3, SpNanC. Particulars: Tris-HCl pH 7.0, 10 min at 37° C.
A further experiment deals with hNEU2 (Homo sapiens, UniProt Q9Y3R4). In words: Sialidase inhibition assay (Example 7). It counts as biochemical. Particulars: 1 mM of each inhibitor; substrate Neu5Acα2-3GalβpNP 0.3 mM; pH 5.0; read-out: Percentage inhibition (%) against hNEU2.
The test system of experiment [12] is SpNanC. The following applies: previously reported recombinant SpNanC; cited from earlier work.
Where [13] appears, read: 1 mM of each inhibitor, substrate Neu5Acα2-3GalβpNP 0.3 mM, pH 5.5.

Sequence of VcSialidase (P0C6E9 25-781): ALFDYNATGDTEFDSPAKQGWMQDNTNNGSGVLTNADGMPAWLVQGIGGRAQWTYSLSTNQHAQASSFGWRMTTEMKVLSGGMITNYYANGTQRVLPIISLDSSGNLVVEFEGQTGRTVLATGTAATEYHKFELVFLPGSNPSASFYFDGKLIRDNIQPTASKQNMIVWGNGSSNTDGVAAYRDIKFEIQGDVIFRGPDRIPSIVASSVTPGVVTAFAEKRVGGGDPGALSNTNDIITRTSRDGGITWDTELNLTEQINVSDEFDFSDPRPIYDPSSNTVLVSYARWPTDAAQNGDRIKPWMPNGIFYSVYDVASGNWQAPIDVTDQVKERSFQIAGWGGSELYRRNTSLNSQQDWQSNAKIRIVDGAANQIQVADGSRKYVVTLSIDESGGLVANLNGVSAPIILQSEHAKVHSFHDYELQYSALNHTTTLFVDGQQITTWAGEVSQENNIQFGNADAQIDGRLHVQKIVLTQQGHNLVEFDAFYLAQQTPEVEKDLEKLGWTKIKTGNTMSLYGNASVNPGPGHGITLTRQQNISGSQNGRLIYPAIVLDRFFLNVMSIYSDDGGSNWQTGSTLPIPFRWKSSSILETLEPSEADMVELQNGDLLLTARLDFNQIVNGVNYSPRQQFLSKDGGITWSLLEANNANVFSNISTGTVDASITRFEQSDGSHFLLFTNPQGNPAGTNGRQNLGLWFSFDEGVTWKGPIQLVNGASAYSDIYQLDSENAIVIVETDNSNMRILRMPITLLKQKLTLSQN
T2 sequence (Q54727 30-697 S59P/E68D/N393D/K536E/K577E): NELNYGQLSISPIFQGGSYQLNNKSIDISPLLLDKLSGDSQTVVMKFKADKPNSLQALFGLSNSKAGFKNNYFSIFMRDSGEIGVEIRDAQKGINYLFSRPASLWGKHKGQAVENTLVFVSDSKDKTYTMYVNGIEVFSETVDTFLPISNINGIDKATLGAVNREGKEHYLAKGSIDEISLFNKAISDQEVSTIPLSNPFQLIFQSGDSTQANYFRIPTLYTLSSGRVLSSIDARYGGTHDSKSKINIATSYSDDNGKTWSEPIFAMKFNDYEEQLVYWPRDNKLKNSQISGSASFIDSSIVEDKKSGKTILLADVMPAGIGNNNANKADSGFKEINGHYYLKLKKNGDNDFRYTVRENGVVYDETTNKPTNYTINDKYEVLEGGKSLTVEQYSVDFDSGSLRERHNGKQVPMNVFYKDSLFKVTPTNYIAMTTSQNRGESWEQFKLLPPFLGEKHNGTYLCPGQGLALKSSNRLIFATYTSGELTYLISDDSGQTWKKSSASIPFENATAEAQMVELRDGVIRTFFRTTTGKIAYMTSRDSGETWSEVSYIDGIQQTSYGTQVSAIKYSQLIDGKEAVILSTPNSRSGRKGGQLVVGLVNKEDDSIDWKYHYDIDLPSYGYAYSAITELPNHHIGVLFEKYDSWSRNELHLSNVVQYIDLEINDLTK
T1 sequence (Q15KI8 entry or part of it): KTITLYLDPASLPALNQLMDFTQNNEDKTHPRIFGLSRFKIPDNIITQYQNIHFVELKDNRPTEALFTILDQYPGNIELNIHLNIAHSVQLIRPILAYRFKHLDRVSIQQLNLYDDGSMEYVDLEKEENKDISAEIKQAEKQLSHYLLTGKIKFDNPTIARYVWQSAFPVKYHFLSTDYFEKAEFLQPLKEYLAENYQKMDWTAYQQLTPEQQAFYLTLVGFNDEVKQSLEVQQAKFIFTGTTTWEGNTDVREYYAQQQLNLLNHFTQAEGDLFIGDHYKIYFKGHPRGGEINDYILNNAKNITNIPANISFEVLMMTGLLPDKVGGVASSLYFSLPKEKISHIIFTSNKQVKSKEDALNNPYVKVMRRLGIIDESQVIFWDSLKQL
Sequence of hNEU2 (Q9Y3R4 whole entry): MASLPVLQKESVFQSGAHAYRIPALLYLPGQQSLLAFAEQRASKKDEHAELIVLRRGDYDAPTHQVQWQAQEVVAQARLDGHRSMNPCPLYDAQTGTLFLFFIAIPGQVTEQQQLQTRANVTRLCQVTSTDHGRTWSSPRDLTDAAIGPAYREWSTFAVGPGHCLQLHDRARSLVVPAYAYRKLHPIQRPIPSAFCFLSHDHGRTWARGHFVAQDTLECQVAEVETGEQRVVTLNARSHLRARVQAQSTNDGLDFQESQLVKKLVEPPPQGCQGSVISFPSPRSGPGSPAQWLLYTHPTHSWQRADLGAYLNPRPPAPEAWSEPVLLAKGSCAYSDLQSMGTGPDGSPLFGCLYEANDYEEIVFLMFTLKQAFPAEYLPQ
T4 sequence (A0ACD7UU12 entry or part of it): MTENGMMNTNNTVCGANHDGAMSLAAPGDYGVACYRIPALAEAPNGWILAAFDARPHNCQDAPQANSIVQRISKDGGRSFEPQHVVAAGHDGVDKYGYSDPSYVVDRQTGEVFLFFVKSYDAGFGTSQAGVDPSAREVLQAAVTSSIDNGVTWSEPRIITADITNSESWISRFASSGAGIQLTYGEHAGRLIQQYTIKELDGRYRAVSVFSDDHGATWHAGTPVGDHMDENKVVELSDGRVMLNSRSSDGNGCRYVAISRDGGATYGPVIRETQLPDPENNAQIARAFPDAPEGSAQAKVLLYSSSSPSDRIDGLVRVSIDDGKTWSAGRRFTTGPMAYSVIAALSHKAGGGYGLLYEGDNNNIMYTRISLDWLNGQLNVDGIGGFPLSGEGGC
Sequence of SpNanA (P62575 54-1006): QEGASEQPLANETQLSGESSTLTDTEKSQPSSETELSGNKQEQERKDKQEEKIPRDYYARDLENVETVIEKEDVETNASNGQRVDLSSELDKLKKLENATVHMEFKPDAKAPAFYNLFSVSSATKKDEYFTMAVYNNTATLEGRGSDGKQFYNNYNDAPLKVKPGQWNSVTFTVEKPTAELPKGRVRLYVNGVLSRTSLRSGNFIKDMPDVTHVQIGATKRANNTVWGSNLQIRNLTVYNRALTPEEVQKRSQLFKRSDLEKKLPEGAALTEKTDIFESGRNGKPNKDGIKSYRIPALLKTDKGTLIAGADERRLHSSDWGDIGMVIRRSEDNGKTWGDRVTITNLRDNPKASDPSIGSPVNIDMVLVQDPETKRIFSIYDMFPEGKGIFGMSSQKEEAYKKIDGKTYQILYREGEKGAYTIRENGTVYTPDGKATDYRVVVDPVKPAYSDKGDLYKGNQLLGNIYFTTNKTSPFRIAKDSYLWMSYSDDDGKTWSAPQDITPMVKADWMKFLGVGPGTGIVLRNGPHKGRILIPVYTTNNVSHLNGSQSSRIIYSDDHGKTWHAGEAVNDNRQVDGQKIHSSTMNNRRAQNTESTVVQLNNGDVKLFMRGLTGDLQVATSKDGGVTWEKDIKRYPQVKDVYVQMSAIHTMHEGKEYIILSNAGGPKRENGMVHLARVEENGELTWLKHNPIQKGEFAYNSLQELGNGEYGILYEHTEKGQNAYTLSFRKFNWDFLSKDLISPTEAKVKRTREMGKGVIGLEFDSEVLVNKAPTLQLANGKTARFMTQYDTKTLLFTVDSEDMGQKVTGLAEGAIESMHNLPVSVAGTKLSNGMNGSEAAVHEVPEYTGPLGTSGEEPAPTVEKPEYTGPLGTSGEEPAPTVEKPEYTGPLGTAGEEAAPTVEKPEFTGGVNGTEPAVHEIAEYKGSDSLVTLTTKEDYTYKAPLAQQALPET
T3 sequence (A0A0H2UQE4 entry or part of it): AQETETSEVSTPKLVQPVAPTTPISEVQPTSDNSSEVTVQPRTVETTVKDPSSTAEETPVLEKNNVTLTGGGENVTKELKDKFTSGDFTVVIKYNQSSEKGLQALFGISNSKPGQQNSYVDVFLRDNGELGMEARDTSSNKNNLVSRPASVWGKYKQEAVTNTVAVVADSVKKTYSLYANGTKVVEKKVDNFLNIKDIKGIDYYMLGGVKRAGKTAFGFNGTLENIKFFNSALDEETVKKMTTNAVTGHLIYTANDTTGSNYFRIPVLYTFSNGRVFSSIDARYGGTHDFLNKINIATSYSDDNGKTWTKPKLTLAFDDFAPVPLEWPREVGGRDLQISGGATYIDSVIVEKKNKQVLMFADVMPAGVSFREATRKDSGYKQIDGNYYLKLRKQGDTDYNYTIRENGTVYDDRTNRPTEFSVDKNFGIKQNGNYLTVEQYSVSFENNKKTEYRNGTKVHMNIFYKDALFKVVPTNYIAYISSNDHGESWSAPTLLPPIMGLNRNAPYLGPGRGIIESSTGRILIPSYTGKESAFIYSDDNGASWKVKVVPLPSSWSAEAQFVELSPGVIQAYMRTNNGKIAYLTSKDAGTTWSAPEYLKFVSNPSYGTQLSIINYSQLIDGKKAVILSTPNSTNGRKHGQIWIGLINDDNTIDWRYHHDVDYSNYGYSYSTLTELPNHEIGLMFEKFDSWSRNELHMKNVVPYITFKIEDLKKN
Sequence of CpNanH (P10481 whole entry, looked up): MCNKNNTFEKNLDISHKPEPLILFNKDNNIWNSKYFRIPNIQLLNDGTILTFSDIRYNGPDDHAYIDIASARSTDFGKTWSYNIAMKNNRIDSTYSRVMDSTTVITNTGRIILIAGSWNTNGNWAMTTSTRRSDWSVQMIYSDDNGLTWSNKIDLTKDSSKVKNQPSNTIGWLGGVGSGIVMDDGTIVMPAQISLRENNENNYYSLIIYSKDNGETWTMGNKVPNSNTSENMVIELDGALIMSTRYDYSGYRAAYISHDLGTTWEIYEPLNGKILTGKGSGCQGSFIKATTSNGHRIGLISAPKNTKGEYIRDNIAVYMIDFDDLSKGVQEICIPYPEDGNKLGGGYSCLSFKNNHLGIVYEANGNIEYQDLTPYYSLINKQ

As to `CC(=O)N[C@H]1[C@H]([C@H](O)[C@H](O)CO)OC(C(=O)O)=C[C@@H]1O` [compound 6, 5-Acetamido-2,6-anhydro-3,5-dideoxy-D-glycero-D-galacto-non-2-enonic acid, reference compound], the inhibition at 1000 µM was determined as 98.8 ± 0.1% on VcSialidase; 9 ± 3.5% at SpNanC [3]; 15.8 ± 0.1% at PmST1 [4]; 98.9 ± 1.8% at SpNanA; 95.3 ± 0.2% at BiNanH2 [5]; 99.6 ± 0.6% at AuSialidase (setting [13]). In addition, the inhibition at 1000 µM at SpNanB [8] was 26.1 ± 1%. Moreover, the inhibition at 100 µM is 2% at PmST1 [1]; 4% at SpNanB [2]; > 50% on BiNanH2 [6]; 11% at SpNanC [7]; 2% on CpNanH. Further, the “Percentage inhibition (%) against CpNanI” value with CpNanI amounted to 93.3 ± 3.8%.
Regarding `CC(=O)N[C@H]1[C@H]([C@H](O)[C@H](O)CO)OC(O[C@H]2[C@@H](O)[C@@H](CO)O[C@@H](Oc3ccc([N+](=O)[O-])cc3)[C@@H]2O)(C(=O)O)C[C@@H]1O` (some centres unmarked) [Neu5Acα2-3GalβpNP], the “Percentage conversion (%) by SpNanC” value in the experiment with SpNanC [9] was 85.1 ± 2.4%. For the same compound, the “Recognition by SpNanB (substrate specificity)” value at SpNanB [10] is listed as “+ (+ represents >80% conversion)”. In addition, on SpNanC [11], the Km turned out to be 2700 ± 500 µM and the kcat is 406.8 ± 39.0 s⁻¹.
Consider `O=C(O)[C@@]12C[C@@H](O)[C@@H](NC3CCCCC3)C(O1)[C@@H]([C@H](O)CO)O2` [2-4], for which the IC50 is > 1000 µM against VcSialidase, 500 to 1000 µM at SpNanA and 180 ± 23 µM against SpNanB [8]. The inhibition at 1000 µM on VcSialidase was 1.2 ± 0.7%; on SpNanC [3], 94.2 ± 0.1%; at PmST1 [4], 12.3 ± 1.9%; on SpNanA, 61.2 ± 0.6%; on BiNanH2 [5], 1.2 ± 0.9%; on hNEU2, 3.6 ± 0.1%. The inhibition at 1000 µM at AuSialidase (setting [13]) was determined as 16.8 ± 2.4%; at SpNanB [8] it was 86.6 ± 0.3%. The “Percentage inhibition (%) against SpNanC” value on SpNanC [3] (1 mM of each inhibitor, substrate Neu5Acα2-3GalβpNP 0.3 mM, pH 6.5) is reported as “showed inhibition”. Also, the “Percentage inhibition (%) against SpNanA” value at SpNanA is reported as “weak inhibition”. For the same compound, the “Percentage inhibition (%) against CpNanI” value in the experiment on CpNanI is reported as 13.6 ± 0.1%. In addition, at SpNanB [8], the “Percentage inhibition (%) against SpNanB” value was “effective inhibitory activity”.
With `CC(=O)N[C@H]1[C@H]([C@H](O)[C@H](O)CO)O[C@@](O[C@H]2[C@@H](O)[C@@H](CO)O[C@@H](O[C@H]3[C@H](O)[C@@H](O)C(O)O[C@@H]3CO)[C@@H]2O)(C(=O)O)C[C@@H]1O` (stereo partly drawn) [α2-3-sialyllactose], in the experiment on SpNanC [12], the Km is 1080 ± 350 µM and the catalytic constant (kcat) is 0.313 ± 0.052 s⁻¹.
As to `N[C@H]1[C@H]2O[C@@](C(=O)O)(C[C@@H]1O)O[C@@H]2[C@H](O)CO` [2-3, 5-Amino-2,7-anhydro-3,5-dideoxy-α-D-glycero-D-galacto-non-2-ulopyranosonic acid], the inhibition at 1000 µM turned out to be 1.3 ± 2% on VcSialidase; 14.9 ± 3% at SpNanC [3]; 13.8 ± 3.3% on PmST1 [4]; 19.3 ± 4.2% at SpNanA; 3.2 ± 3.2% on BiNanH2 [5]; 1.4 ± 2.4% at hNEU2. Also, the inhibition at 1000 µM at AuSialidase (setting [13]) amounted to 1.3 ± 2.2%; at SpNanB [8], 11.7 ± 2.6%. Further, in the experiment on CpNanI, the “Percentage inhibition (%) against CpNanI” value amounted to 10.1 ± 5.7%.
On to `O=C(N[C@H]1[C@H]2O[C@@](C(=O)O)(C[C@@H]1O)O[C@@H]2[C@H](O)CO)C(F)(F)F` [2-2, 2,7-Anhydro-3,5-dideoxy-5-trifluoroacetamido-α-D-glycero-D-galacto-non-2-ulopyranosonic acid], for which the IC50 at VcSialidase is 500 to 1000 µM; at AuSialidase (read-out: IC50 against AuSialidase) it was 225 ± 34 µM; against SpNanB [8], 250 to 500 µM. In addition, the “Percentage inhibition (%) against VcSialidase” value at VcSialidase (setting [13]) is “weak inhibition”. For the same compound, the inhibition at 1000 µM at VcSialidase was 62.1 ± 0.6%; at SpNanC [3] it was 4.4 ± 2%; at PmST1 [4] it was 11 ± 2.7%; on SpNanA it was 83.8 ± 0.3%; on BiNanH2 [5], 3.8 ± 2.6%; at hNEU2, 2.5 ± 2.1%. The inhibition at 1000 µM came out at 85.1 ± 0.3% at AuSialidase (setting [13]) and 68.2 ± 2.6% at SpNanB [8]. For the same compound, the “Percentage inhibition (%) against SpNanA” value on SpNanA was “moderate inhibitory activity”. Besides, the “Percentage inhibition (%) against CpNanI” value in the experiment on CpNanI turned out to be 44.1 ± 1.0%. Further, the “Percentage inhibition (%) against AuSialidase” value at AuSialidase (setting [13]) is “moderate inhibitory activity”. In addition, the “Percentage inhibition (%) against SpNanB” value on SpNanB [8] is “weak inhibition”.

The inhibition is the drop in the measured response relative to a control, in per cent. One may read the Km as the substrate concentration at which the rate is half of its maximum. The term kcat denotes the number of substrate molecules converted per active site and unit of time at saturation. A word on the IC50: it is the point on the concentration scale where inhibition reaches its midpoint.
